According to patent US20250205200A1, “5-METHOXY-N,N-[…][…] THE TREATMENT OF […]” (GH RESEARCH IRELAND LIMITED, priority 2022, published 2025):

Columns and labels:
human hepatocytes = experiment: Metabolic stability in Hμrel human hepatocyte co-culture assay; type: in vitro ADME; settings: for Metabolic turnover: human hepatocytes
human plasma protein = experiment: Plasma binding of 5-MIAA; type: in vitro ADME; settings: estimated from fu and glomerular filtration rate 90-120 ml/min
[1] = rat; cited from earlier work
[2] = Pharmacokinetics of 5-MeO-DMT and bufotenine after inhalation; type: in vivo, human
patients with PPD = settings: cited from earlier work

5-Methoxyindole acetic acid [5-Methoxyindole acetic acid (5-MIAA)]
Metabolic turnover (human hepatocytes): low metabolic turnover | Remaining abundance after 72 h (human hepatocytes; in the presence of hepatocytes, 1 and 10 μM): 75-82% | Disappearance with stromal cell controls (human hepatocytes): no disappearance | Time until removed from circulation for urinary excretion (human plasma protein): 1 to 2 h

COc1ccc2[nH]cc(CC[N+](C)(C)[O-])c2c1 [5-MeO-DMT-N-oxide]
Excretion [1]: rapid excretion

COc1ccc2[nH]cc(CCO)c2c1 [5-Methoxyindole-3-ethanol]
Relative LC/MS peak area remaining (human hepatocytes; 1 μM Stromal cells, 4 h): 97% | Relative LC/MS peak area remaining (human hepatocytes; 1 μM Stromal cells, 8 h): 107% | Relative LC/MS peak area remaining (human hepatocytes; 1 μM Stromal cells, 24 h): 94% | Relative LC/MS peak area remaining (human hepatocytes; 1 μM Stromal cells, 48 h): 102% | Relative LC/MS peak area remaining (human hepatocytes; 1 μM Stromal cells, 72 h): 104% | Relative LC/MS peak area remaining (human hepatocytes; 10 μM Stromal cells, 4 h): 99% | Relative LC/MS peak area remaining (human hepatocytes; 10 μM Stromal cells, 8 h): 105% | Relative LC/MS peak area remaining (human hepatocytes; 10 μM Stromal cells, 24 h): 86% | Relative LC/MS peak area remaining (human hepatocytes; 10 μM Stromal cells, 48 h): 98% | Relative LC/MS peak area remaining (human hepatocytes; 10 μM Stromal cells, 72 h): 104% | Metabolic turnover (human hepatocytes): high metabolic turnover | Disappearance with stromal cell controls (human hepatocytes): no disappearance

CN(C)CCc1c[nH]c2ccc(O)cc12 [Bufotenine (5-OH-DMT), Bufotenine]
Detection of bufotenine in human serum ([2]; 15 minutes after administration of 5-MeO-DMT): In no case is it detected | Detection of bufotenine in human serum ([2]; after administration of 5-MeO-DMT): barely detected | Samples with bufotenine concentration above LLOQ (25 pg/ml) ([2]; after inhaled 5-MeO-DMT): Only in few samples

CC(=O)[C@H]1CC[C@H]2[C@@H]3CC[C@H]4C[C@H](O)CC[C@]4(C)[C@H]3CC[C@]12C [brexanolone]
HAM-D scores (patients with PPD; one phase 3 trial, 30 days after initiation of infusion): significantly reduced | Efficacy (HAM-D) (patients with PPD; other phase 3 trial): failed to show efficacy beyond 7 days
